We go through twelve compounds from ChEMBL document CHEMBL1156974, “Design, synthesis and in vitro/in vivo evaluation of orally bioavailable prodrugs of a catechol-O-methyltransferase inhibitor” (Bioorg Med Chem Lett, 2010).

Data set [1] is described as follows: Chemical stability in fasted state simulated intestinal fluid up to 8 hrs by HPLC analysis. In kind it is physicochemical. Particulars: simulated gi fluid.
Data set [2] can be described thus: Uncoupling activity in Wistar rat mitochondria assessed as increase in oxygen consumption by mitochondrial respiration assay relative to 10 uM dinitrophenol. The class given is ADME.
Data set [3] in a line: Aqueous solubility in acetate buffer at pH 4.0 by HPLC analysis. The class given is physicochemical.
Data set [4] in a line: Aqueous solubility in phosphate buffer at pH 7.4 by HPLC analysis. In kind it is physicochemical.
Data set [5] can be described thus: Distribution coefficient, log D at pH 7.4 by HPLC analysis. In kind it is physicochemical. Particulars: octanol/water.
Data set [6] is described as follows: Distribution coefficient, log D at pH 4.0 by HPLC analysis. The class given is physicochemical. Particulars: octanol/water.
Data set [7] is described as follows: Aqueous solubility in HCl buffer at pH 1.2 by HPLC analysis. The class given is physicochemical.
A short description of data set [8]: Distribution coefficient, log D at pH 1.2 by HPLC analysis. The class given is physicochemical. Particulars: octanol/water.
Data set [9] is described as follows: Chemical stability in […] up to 1 week by HPLC analysis. The class given is physicochemical. Particulars: pH 4, 168 h.
A short description of data set [10]: Half life in rat liver homogenate by HPLC analysis. The class given is ADME, tissue-based.
A short description of data set [11]: Chemical stability in phosphate buffer at pH 7.4 up to 1 week by HPLC analysis. The class given is physicochemical. Particulars: pH 7.4, 168 h.
For data set [12], the target named is T1, Catechol O-methyltransferase (Homo sapiens, UniProt P21964).
T1 sequence (P21964 whole entry): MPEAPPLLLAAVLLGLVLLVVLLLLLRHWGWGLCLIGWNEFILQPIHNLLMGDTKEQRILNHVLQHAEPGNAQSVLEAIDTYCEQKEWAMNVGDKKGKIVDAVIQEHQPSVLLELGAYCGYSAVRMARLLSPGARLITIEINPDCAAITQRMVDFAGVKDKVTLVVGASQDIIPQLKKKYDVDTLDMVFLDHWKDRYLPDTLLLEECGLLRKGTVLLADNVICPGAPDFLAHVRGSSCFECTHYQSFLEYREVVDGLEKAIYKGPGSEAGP
Briefly: Inhibition of human recombinant COMT by microplate screening assay.

Data set [13] relates to Serum. The data set can be described thus: Metabolic stability in human serum up to 8 hrs by HPLC analysis. In kind it is ADME, cell-free.
A short description of data set [14]: Chemical stability in acetate buffer assessed as hydrolysis half life at pH 4.0 by HPLC analysis. The class given is physicochemical.
Data set [15] can be described thus: Chemical stability in phosphate buffer assessed as hydrolysis half life at pH 7.4 by HPLC analysis. The class given is physicochemical.
Data set [16] relates to Rattus norvegicus. The data set can be described thus: AUC in Wistar rat at 10 umol/kg, po up to 6 hrs by LC/MS/MS relative to 3-Chloro-5,6-dihydroxy-7-nitro-benzo[b]thiophene-2-carboxylic acid. In kind it is ADME, organism-based, Plasma. Particulars: in vivo.
Data set [17] is described as follows: Half life in human serum by HPLC analysis. The class given is ADME, cell-free.
Data set [18] in a line: Chemical stability in fasted state simulated intestinal fluid assessed as hydrolysis half life by HPLC analysis. The class given is physicochemical.
[19] abbreviates: acetate buffer, read-out: solubility.
The mark [20] stands for this setting: HCl buffer, read-out: solubility.
The mark [21] stands for this setting: buffer, BLD = below limit of detection.

In brackets after ≈: the same amount, converted by molar mass.

Turning to `O=C(O)c1sc2c([N+](=O)[O-])c(O)c(O)cc2c1Cl`, the Stability result in data set [1] is “Stable”. Further, in data set [2], the Uncoupling concentration is greater than 50 µM. The solubility (in general, the dissolved amount per volume that the medium holds) in data set [3] (setting [19]) was 53 µg/mL (≈ 183 µM); in data set [4], 15000 µg/mL (≈ 51800 µM); in data set [7] (setting [20]), 3.9 µg/mL (≈ 13.5 µM). Besides, the log distribution coefficient (logD) (as a rule, lipophilicity at a set pH, counting ionised and neutral species) came out at 0.06 in data set [5] (read-out: logD), 1.8 in [6] and 3.64 in [8].

In the case of `COC(=O)c1sc2c([N+](=O)[O-])c(O)c(O)cc2c1Cl`, the Stability entry in data set [9], in data set [11] and in [13] was “Stable” each time. In addition, in data set [2], the Uncoupling concentration is greater than 10 µM. In addition, the results for the solubility in data set [3] (setting [19]), in [4] and in data set [7] (setting [20]) were 4.2 µg/mL (≈ 13.8 µM), 11.4 µg/mL (≈ 37.5 µM) and 0.7 µg/mL (≈ 2.31 µM), respectively. Further, the half-life – broadly, the time in which the quantity being followed falls by half – in data set [10] was 0.33 h. Further, the logD in data set [5] (read-out: logD) came to 1.51. Moreover, the Ki – broadly, a measure of affinity in units of concentration, obtained from inhibition or displacement – in data set [12] was determined as 2.2 nM.

`CCCOC(=O)c1sc2c([N+](=O)[O-])c(O)c(O)cc2c1Cl`: in data set [2], the Uncoupling concentration was greater than 5 µM. Further, the results for the solubility in data set [3] (setting [19]), in [4] and in data set [7] (setting [21]) were 0.5 µg/mL (≈ 1.51 µM), 10.8 µg/mL (≈ 32.6 µM) and “BLD”, respectively. The half-life is 0.34 h in data set [10] and 744 h in [14]. Also, the logD in data set [5] (read-out: logD) is 2.45. Besides, the Stability entry in data set [11] and in [13] was “Stable” each time. The Ki in data set [12] is 9.2 nM.

In the case of `O=C(OCc1ccccc1)c1sc2c([N+](=O)[O-])c(O)c(O)cc2c1Cl`, the half-life in data set [15] is 21.6 h; in data set [10], 0.865 h. Further, the Uncoupling concentration in [2] is greater than 10 µM. Besides, the solubility result in data set [3] (setting [21]) was “BLD”; in [4], 6.9 µg/mL (≈ 18.2 µM); in data set [7] (setting [21]), “BLD”. For the same compound, the logD entry in data set [5] (BLD = below limit of detection) was “BLD”. In [12], the Ki turned out to be 10.2 nM. Besides, the Stability entry in [13] is “Stable”.

Turning to `CC(C)C(=O)OCOC(=O)c1sc2c([N+](=O)[O-])c(O)c(O)cc2c1Cl`, the Stability entry in data set [1] is “Stable”. Moreover, the half-life was 7.6 h in data set [15], no more than 0.0167 h in data set [10], 5.1 h in [17] and 202 h in [14]. The Uncoupling concentration in data set [2] is greater than 50 µM. In addition, in [16], the “fold change (FC)” value is on record as 2. For the same compound, the solubility entry is “BLD” in data set [3] (setting [21]), no less than 200 µg/mL in data set [4] and “BLD” in data set [7] (setting [21]). The logD in data set [5] (read-out: logD) came out at 2.91. For the same compound, in [12], the Ki is 17 nM.

For `CC(OC(=O)c1sc2c([N+](=O)[O-])c(O)c(O)cc2c1Cl)OC(=O)C(C)C` (stereo unspecified), the Stability result in data set [1] was “Stable”. The results for the half-life in data set [15], in [10] and in data set [17] were 48 h, no more than 0.0167 h and 32.3 h, respectively. Further, in [2], the Uncoupling concentration was greater than 50 µM. Also, the “fold change (FC)” value in [16] stood at 0.5. Further, the values for the solubility in data set [3] (setting [19]), in data set [4] and in data set [7] (setting [21]) were 0.6 µg/mL (≈ 1.49 µM), 258 µg/mL (≈ 639 µM) and “BLD”, respectively. Also, the pH-dependent lipophilicity (logD) in [5] (read-out: logD) came to 3.02. The Ki in [12] came out at 17 nM.

For the compound `CCCC(=O)OCOC(=O)c1sc2c([N+](=O)[O-])c(O)c(O)cc2c1Cl`, the half-life is 2.5 h in data set [15], no more than 0.0167 h in data set [10] and 5.3 h in data set [17]. Besides, the Uncoupling concentration in [2] is greater than 50 µM. In addition, the Ki in [12] worked out at 10.6 nM.

Regarding `CCCCOC(=O)c1sc2c([N+](=O)[O-])c(O)c(O)cc2c1Cl`, the Uncoupling concentration in data set [2] was greater than 2.5 µM. Moreover, the figures for the solubility in [3] (setting [19]), in data set [4] and in data set [7] (setting [21]) were 0.7 µg/mL (≈ 2.02 µM), 3.2 µg/mL (≈ 9.25 µM) and “BLD”, respectively. The compound further came in with a half-life in data set [10] of 0.698 h. Besides, the logD entry in data set [5] (BLD = below limit of detection) was “BLD”. Also, the Stability result in data set [11] and in data set [13] was “Stable” throughout. In addition, the Ki in data set [12] worked out at 1.3 nM.

Turning to `CC(C)OC(=O)c1sc2c([N+](=O)[O-])c(O)c(O)cc2c1Cl`, in data set [2], the Uncoupling concentration is greater than 1 µM. In addition, the solubility is 0.5 µg/mL (≈ 1.51 µM) in data set [3] (setting [19]), 18.7 µg/mL (≈ 56.4 µM) in data set [4] and “BLD” in [7] (setting [21]). For the same compound, the half-life in data set [10] is 2.18 h; in data set [14], 552 h. For the same compound, the logD in [5] (read-out: logD) is 1.14. The Stability entry in data set [11] and in data set [13] was “Stable” in each case. Also, the Ki in [12] is 1.1 nM.

For the compound `CCCC(=O)OC(C)OC(=O)c1sc2c([N+](=O)[O-])c(O)c(O)cc2c1Cl` (stereo unspecified), the half-life in data set [15] is 4.5 h; in [10], no more than 0.0167 h; in [17] it was 25 h. The Uncoupling concentration in [2] was greater than 50 µM. In addition, the solubility was determined as 4.6 µg/mL (≈ 11.4 µM) in [3] (setting [19]), 60.4 µg/mL (≈ 150 µM) in data set [4] and 0.5 µg/mL (≈ 1.24 µM) in data set [7] (setting [20]). For the same compound, the logD in [5] (read-out: logD) is 2.16. For the same compound, in [12], the Ki came out at 16.6 nM.

With `CC(C)C(N)C(=O)OCOC(=O)c1sc2c([N+](=O)[O-])c(O)c(O)cc2c1Cl` (stereo unspecified), the half-life is 2 h in data set [15]; no more than 0.0167 h in data set [10]; 31.7 h in [18]; 0.06 h in data set [17]; 40.8 h in [14]. For the same compound, the Uncoupling concentration in data set [2] came out at 25 µM. In addition, the “fold change (FC)” value in [16] amounted to 0.4. Besides, the solubility in [3] (setting [19]) turned out to be 17.5 µg/mL (≈ 41.8 µM); in [4], 10 µg/mL (≈ 23.9 µM); in [7] (setting [20]), 6600 µg/mL (≈ 15800 µM). For the same compound, in [12], the Ki amounted to 6 nM.

As to `O=C(OCc1coc(=O)o1)c1sc2c([N+](=O)[O-])c(O)c(O)cc2c1Cl`, the half-life is 11.7 h in data set [15]; no more than 0.0167 h in [10]; 167 h in data set [18]; 0.03 h in data set [17]; 93.6 h in data set [14]. The “fold change (FC)” value in data set [16] turned out to be 2.1. In addition, in data set [12], the Ki is 1.6 nM.
